Experimental data: patent publication US12297234B2, “Genetically encoded system for constructing and detecting biologically active agents” (The Regents of the University of Colorado, priority 2018, dated 2025)

Legend:
PTP1B [1] = biological target: T1, PTP1B (Homo sapiens, UniProt P18031); test: PTP1B-catalyzed hydrolysis of pNPP in the presence of inhibitor; type: biochemical, H. sapiens
T1 construct: made in house; host or cells: E. coli BL21 (B121 [sic])
T1 sequence (P18031 1-435): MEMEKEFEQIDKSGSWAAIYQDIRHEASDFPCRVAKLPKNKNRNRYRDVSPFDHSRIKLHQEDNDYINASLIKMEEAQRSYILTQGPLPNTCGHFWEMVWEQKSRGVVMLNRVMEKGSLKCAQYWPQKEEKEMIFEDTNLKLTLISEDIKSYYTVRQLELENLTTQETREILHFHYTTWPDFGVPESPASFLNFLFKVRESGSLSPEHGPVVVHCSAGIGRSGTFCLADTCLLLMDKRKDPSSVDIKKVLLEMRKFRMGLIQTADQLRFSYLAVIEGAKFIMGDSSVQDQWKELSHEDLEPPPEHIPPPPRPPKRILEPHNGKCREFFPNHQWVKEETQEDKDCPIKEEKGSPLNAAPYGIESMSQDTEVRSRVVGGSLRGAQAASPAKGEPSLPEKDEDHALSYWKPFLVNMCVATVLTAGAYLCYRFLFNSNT
From the text: FIG. 14A illustrates Abietic acid. […] FIG. 14C illustrates Abietic acid (green) docked in the allosteric site of PTP1B. […] Inset highlights active site in black.
FIG. 16A-B illustrates exemplary terpenoids showing differences in stereochemistry, shape, size, and chemical functionality. FIG. 16A illustrates clockwise from abietic acid (1), neoabietic acid (2), levopimaric acid (3), dihydroabietic acid (4). […] No inhibitor. Error bars=standard error (n>5).
Lines show a fit to a model for mixed inhibition. FIG. 22D an exemplary illustration of this model, where the inhibitor (I) binds to the enzyme (E) and enzyme-substrate complex (ES) with different affinities.
Improved inhibitors. We assessed the ability of minor structural perturbations of abietadiene derivatives to yield improved inhibitors by comparing four structurally related (and commercially available) molecules (FIG. 16): abietic, neoabietic, levopimaric, and dihydroabietic acid.
Statistical Analysis of Kinetic Models. We evaluated four kinetic models of inhibition as described previously (19). In brief, we used an F-test to compare a two-parameter mixed model to several single-parameter models, and we used Akaike's Information Criterion (AIC, or Ai) to compare the single-parameter models to one another. […] Exemplary Estimation of IC50. […]

PTP1B [2] = test: Mutational analysis of the inhibitor binding site (fractional change in inhibition); type: biochemical, H. sapiens; conditions: FIG. 24C
From the text: FIG. 24B illustrates exemplary disruptive mutations introduced at each site. Mutations were designed to alter the size and/or polarity of targeted residues. […] Error bars denote SE (propagated from n≥9 independent measurements of each V in Eq. 1).

PTP1B [3] = biological target: T1, PTP1B; test: Binding-induced quenching of tryptophan fluorescence of PTP1B; set-up: species or system H. sapiens; conditions: FIG. 17C
From the text: FIG. 17A N-HSQC spectra of PTP1B (red) and PTP1B bound to abietic acid (blue). Inset: Crystal structure of PTP1B. […] Error bars represent standard error (n>5).
Binding-induced changes in the tryptophan fluorescence of PTP1B. A screen in which inhibition of PTP1B is linked to changes in tryptophan fluorescence (FIG. 21D) will enable rapid screening of moderately sized libraries (10^3-10^4)^27 in microtiter plates. Our use of binding-induced changes in tryptophan fluorescence is described in 5.6.

| effect of five mutations distributed across PTP1B on inhibition (PTP1B [2]) | concentration detected by change in tryptophan fluorescence of PTP1B (PTP1B [3]) [µM] | Ki (PTP1B [1]; commercially available abietane-type acids, FIG. 16, read-out: K, (inhibition of PTP1B)) [µM] | Structure (SMILES) | inhibition relative to abietic acid (PTP1B [1]) |
| --- | --- | --- | --- | --- |
| – | – | – | CC(C)C1C=C2CCC3C(C)(C(=O)O)CCCC3(C)C2CC1 (stereo not drawn) [dihydroabietic acid] | ten times more inhibitory than abietic acid |
| negligible effect | – | – | CCc1oc2cc(S(=O)(=O)Nc3ccc(S(=O)(=O)Nc4nccs4)cc3)ccc2c1C(=O)c1cc(Br)c(O)c(Br)c1 [BBR, 3-(3,5-Dibromo-4-hydroxy-benzoyl)-2-ethyl-benzofuran-6-sulfonicacid-(4-(thiazol-2-ylsulfamyl)-phenyl)-amide] | – |
| reduced inhibition | 50 | 250 | CC(C)C1=CC2=CC[C@@H]3[C@](C)(CCC[C@@]3(C)C(=O)O)[C@H]2CC1 [abietic acid] | – |

| Structure (SMILES) | effect of five mutations distributed across PTP1B on inhibition (PTP1B [2]) | concentration detected by change in tryptophan fluorescence of PTP1B (PTP1B [3]) [µM] | Ki (PTP1B [1]; commercially available abietane-type acids, FIG. 16, read-out: K, (inhibition of PTP1B)) [µM] | inhibition relative to abietic acid (PTP1B [1]) |
| --- | --- | --- | --- | --- |
| Cl.O=C(O)C(=O)Nc1sc2c(c1C(=O)O)CCNC2 [TCS401, 2-[(Carbox-ycarbonyl)amino]-4,5,6,7-tetrahydro-thieno[2,3-c]pyridine-3-carboxylic acid hydrochloride] | reduced inhibition | – | – | – |
